# Results published in PubChem BioAssay AID1963842 (Molecular Pharmacology Branch, DTP, NCI, 2024).
# System: 677734-321-R-J1-PDC complex spheroid viability
# Test: Anticancer human tumor 677734-321-R-J1-PDC patient-derived soft tissue sarcoma cell line growth inhibition [POLQ]
# Details: for IC50: curve of first compound; for viability, T/C: stronger effect = lower value
# Experimental: Multicellular complex tumor spheroid response to Polymerase (POL) inhibitors (novobiocin, ART-558, RP6685) in combination with a variety of drugs and investigational agents in selected tumor cell lines
# The POL inhibitors (novobiocin, ART-558, and RP6685) were evaluated both individually and in combination with standard of care and investigational anticancer small molecules within a complex spheroid model of solid tumors. . Complex spheroids include a stromal component modeled by human endothelial cells (HUVEC) and fibroblasts modeled by human mesenchymal stem cells (MSCs). The concentration ranges selected for each drug and investigational agent were based upon clinically achievable concentrations if the clinical Cmax of the agent was known.
# Compounds. The drugs and investigational agents: novobiocin (NSC847541), ART-558 (NSC835418), RP-6685 (NSC848927), peposertib (NSC802822), ceralasertib (NSC780249), elimusertib (NSC800525), camonsertib (NSC841442), AZD-1390 (NSC803789), olaparib (NSC753686), talazoparib (NSC767125), rucaparib (NSC756644), sotorasib (NSC818433), MRTX-1133 (NSC836407), SN-38 (NSC673596), topotecan (NSC609699), epotoside (NSC141540), doxorubicin (NSC123127), gemcitabine (NSC613327), 5-fluorouracil (NSC19893), paclitaxel (NSC125973), vemurafenib (NSC761431), MSA-2 (NSC828583), SN-011 (NSC837082), adavosertib (NSC754352), prexasertib (NSC758257), carboplatin (NSC241240) and oxaliplatin (NSC266046), were obtained from the National Cancer Institute (NCI) Developmental Therapeutics Program Chemical Repository (21). The FDA-approved anticancer drug set is available from the Developmental Therapeutics Program at https://dtp.cancer.gov/organization/dscb/obtaining/. […] The stock solutions were prepared in dimethyl sulfoxide (DMSO, Sigma-Aldrich, St. Louis, MO, cat. D2650), except for the platinum compounds which were prepared in saline (Quality Biological, Gaithersburg, MD, cat. 114-055-101), at 800-fold the tested concentration and stored at -70 degrees C prior to their use. All drugs and investigational agents were tested over a range starting from a high concentration at or near the clinical Cmax and decreasing in half-log increments. If the clinical Cmax for an agent had not been determined, the highest concentration tested was 10 microM, except for SN-38, which was tested at a high concentration of 1 microM.
# Cell Culture. All cells were maintained in an incubator at 37 degrees C and 5% CO2 with 95% humidity. The PDC lines were cultured according to standard operating procedures established by the NCI PDMR (https://pdmr.cancer.gov). Table 3 of the manuscript, lists the cell lines along with the number of the three cell types plated to form the mct-spheroids and media for tumor cell growth. After thawing, all PDC lines, except 997537-175-T-J1-PDC and 415267-285-R-J2-PDC, were cultured in Matrigel-coated flasks prepared with a working solution of 1X Ham's F-12 nutrient mix, without supplementation (Thermo Fisher Scientific, cat. 11765054), 100 U/mL penicillin-streptomycin (Thermo Fisher Scientific, cat. 15140122), and 2.5% Matrigel (Corning Inc., Corning, NY, cat. 354248) for the first three passages. The two PDC lines 997537-175-T-J1-PDC and 415267-285-R-J2-PDC were cultured on uncoated flasks. The 857933-349-R-J2-PDC line was cultured in 6C/Colon 1B media containing advanced DMEM/F-12 (Thermo Fisher Scientific, cat. 12634028), 10 mM HEPES (Thermo Fisher Scientific, cat. 15630080), 1X GlutaMAX supplement (Thermo Fisher Scientific, cat. 35050061), 0.1 mg/mL primocin (InvivoGen, San Diego, CA, cat. ant-pm-2), 10% defined fetal bovine serum, heat inactivated (HyClone Laboratories Inc., Logan, UT, cat. SH30070.03HI), 50% L-WRN conditioned media (ATCC, cat. CRL-3276), 1.25 mM N-Acetyl-L-cysteine (Sigma-Aldrich, cat. A9165), 10 mM nicotinamide (Sigma-Aldrich, cat. N0636), 1X B-27 supplement (Thermo Fisher Scientific, cat. 17504044), 1X N-2 supplement (Thermo Fisher Scientific, cat. […]
# [1] = second compound 0.0316 µM, first compound 0.0316 µM
# [2] = second compound 0.0316 µM, first compound 0.1 µM
# [3] = second compound 0.0316 µM, first compound 0.316 µM
# [4] = second compound 0.0316 µM, first compound 1 µM
# [5] = second compound 0.1 µM, first compound 0.0316 µM
# [6] = second compound 0.1 µM, first compound 0.1 µM
# [7] = second compound 0.1 µM, first compound 0.316 µM
# [8] = second compound 0.1 µM, first compound 1 µM
# [9] = second compound 0.316 µM, first compound 0.0316 µM
# [10] = second compound 0.316 µM, first compound 0.1 µM
# [11] = second compound 0.316 µM, first compound 0.316 µM
# [12] = second compound 0.316 µM, first compound 1 µM
# [13] = second compound 1 µM, first compound 0.0316 µM
# [14] = second compound 1 µM, first compound 0.1 µM
# [15] = second compound 1 µM, first compound 0.316 µM
# [16] = second compound 1 µM, first compound 1 µM
# [17] = second compound 3.16 µM, first compound 0.0316 µM
# [18] = second compound 3.16 µM, first compound 0.1 µM
# [19] = second compound 3.16 µM, first compound 0.316 µM
# [20] = second compound 3.16 µM, first compound 1 µM
# [21] = second compound 10 µM, first compound 0.0316 µM
# [22] = second compound 10 µM, first compound 0.1 µM
# [23] = second compound 10 µM, first compound 0.316 µM
# [24] = second compound 10 µM, first compound 1 µM
# 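Further: spheroids exposed to compounds for one week.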
# 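Wherever viability, T/C is given: 100% = vehicle DMSO treated spheroids.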
smiles,measurement,setting,value
C=CCn1c(=O)c2cnc(Nc3ccc(N4CCN(C)CC4)cc3)nc2n1-c1cccc(C(C)(C)O)n1 + COC1C(OC(N)=O)C(O)C(Oc2ccc3c(O)c(NC(=O)c4ccc(O)c(CC=C(C)C)c4)c(=O)oc3c2C)OC1(C)C,IC50,second compound 0.0316 µM,> 1000 nM
same,IC50,second compound 0.1 µM,> 1000 nM
same,IC50,second compound 0.316 µM,> 1000 nM
same,IC50,second compound 1 µM,> 1000 nM
same,IC50,second compound 3.16 µM,> 1000 nM
same,IC50,second compound 10 µM,> 1000 nM
same,"viability, T/C","second compound 0.0316 µM, first compound 0.00316 µM",110%
same,"viability, T/C","second compound 0.0316 µM, first compound 0.01 µM",93.9%
same,"viability, T/C",[1],101%
same,"viability, T/C",[2],102%
same,"viability, T/C",[3],104%
same,"viability, T/C",[4],61.6%
same,"viability, T/C","second compound 0.1 µM, first compound 0.00316 µM",105%
same,"viability, T/C","second compound 0.1 µM, first compound 0.01 µM",106%
same,"viability, T/C",[5],101%
same,"viability, T/C",[6],99.3%
same,"viability, T/C",[7],104%
same,"viability, T/C",[8],72.4%
same,"viability, T/C","second compound 0.316 µM, first compound 0.00316 µM",119%
same,"viability, T/C","second compound 0.316 µM, first compound 0.01 µM",105%
same,"viability, T/C",[9],103%
same,"viability, T/C",[10],111%
same,"viability, T/C",[11],111%
same,"viability, T/C",[12],70.2%
same,"viability, T/C","second compound 1 µM, first compound 0.00316 µM",108%
same,"viability, T/C","second compound 1 µM, first compound 0.01 µM",102%
same,"viability, T/C",[13],104%
same,"viability, T/C",[14],112%
same,"viability, T/C",[15],107%
same,"viability, T/C",[16],66.3%
same,"viability, T/C","second compound 3.16 µM, first compound 0.00316 µM",101%
same,"viability, T/C","second compound 3.16 µM, first compound 0.01 µM",103%
same,"viability, T/C",[17],104%
same,"viability, T/C",[18],115%
same,"viability, T/C",[19],106%
same,"viability, T/C",[20],69.8%
same,"viability, T/C","second compound 10 µM, first compound 0.00316 µM",109%
same,"viability, T/C","second compound 10 µM, first compound 0.01 µM",110%
same,"viability, T/C",[21],102%
same,"viability, T/C",[22],106%
same,"viability, T/C",[23],105%
same,"viability, T/C",[24],76%
COc1cc(C2c3cc4c(cc3C(OC3OC5COC(C)OC5C(O)C3O)C3COC(=O)C23)OCO4)cc(OC)c1O (centres undefined) + COC1C(OC(N)=O)C(O)C(Oc2ccc3c(O)c(NC(=O)c4ccc(O)c(CC=C(C)C)c4)c(=O)oc3c2C)OC1(C)C,IC50,second compound 0.0316 µM,711 nM
same,IC50,second compound 0.1 µM,732 nM
same,IC50,second compound 0.316 µM,938 nM
same,IC50,second compound 1 µM,667 nM
same,IC50,second compound 3.16 µM,843 nM
same,IC50,second compound 10 µM,704 nM
same,"viability, T/C",[1],107%
same,"viability, T/C",[2],91.5%
same,"viability, T/C",[3],59.5%
same,"viability, T/C",[4],47.8%
same,"viability, T/C","second compound 0.0316 µM, first compound 3.16 µM",23.8%
same,"viability, T/C","second compound 0.0316 µM, first compound 10 µM",11.1%
same,"viability, T/C",[5],105%
same,"viability, T/C",[6],94.7%
same,"viability, T/C",[7],55%
same,"viability, T/C",[8],47.2%
same,"viability, T/C","second compound 0.1 µM, first compound 3.16 µM",30.2%
same,"viability, T/C","second compound 0.1 µM, first compound 10 µM",10.7%
same,"viability, T/C",[9],100%
same,"viability, T/C",[10],93.8%
same,"viability, T/C",[11],70.8%
same,"viability, T/C",[12],51.3%
same,"viability, T/C","second compound 0.316 µM, first compound 3.16 µM",23.9%
same,"viability, T/C","second compound 0.316 µM, first compound 10 µM",12%
same,"viability, T/C",[13],111%
same,"viability, T/C",[14],87.2%
same,"viability, T/C",[15],60.4%
same,"viability, T/C",[16],45.3%
same,"viability, T/C","second compound 1 µM, first compound 3.16 µM",24.3%
same,"viability, T/C","second compound 1 µM, first compound 10 µM",9.55%
same,"viability, T/C",[17],111%
same,"viability, T/C",[18],93.6%
same,"viability, T/C",[19],62.6%
same,"viability, T/C",[20],54.9%
same,"viability, T/C","second compound 3.16 µM, first compound 3.16 µM",20.4%
same,"viability, T/C","second compound 3.16 µM, first compound 10 µM",9%
same,"viability, T/C",[21],110%
same,"viability, T/C",[22],98.2%
same,"viability, T/C",[23],58.2%
same,"viability, T/C",[24],47.6%
same,"viability, T/C","second compound 10 µM, first compound 3.16 µM",23.7%
same,"viability, T/C","second compound 10 µM, first compound 10 µM",11%
